Test results taken from patent US5736528A, “N^6 -(epoxynorborn-2-yl) adenosines as A1 adenosine receptor agonists” (priority 1995, dated 1998).
Where two headings read alike, the source gives them in different places. Each block holds one compound with its values, some of them ahead of it.

Experiments:
A1 receptor [1] = target: T1, A1 receptor (Cavia porcellus, UniProt P47745); assay: Antagonism of A1 receptor-mediated negative dromotropic effect (S-H interval prolongation) of CCPA, Schild analysis, isolated perfused heart; set-up: species or system guinea pig; conditions: for Slope of Schild plot: mean ± S.E.M.
T1 construct: isolated perfused guinea pig heart; from tissue; host or cells: isolated perfused guinea pig heart
T1 sequence (P47745 1-326): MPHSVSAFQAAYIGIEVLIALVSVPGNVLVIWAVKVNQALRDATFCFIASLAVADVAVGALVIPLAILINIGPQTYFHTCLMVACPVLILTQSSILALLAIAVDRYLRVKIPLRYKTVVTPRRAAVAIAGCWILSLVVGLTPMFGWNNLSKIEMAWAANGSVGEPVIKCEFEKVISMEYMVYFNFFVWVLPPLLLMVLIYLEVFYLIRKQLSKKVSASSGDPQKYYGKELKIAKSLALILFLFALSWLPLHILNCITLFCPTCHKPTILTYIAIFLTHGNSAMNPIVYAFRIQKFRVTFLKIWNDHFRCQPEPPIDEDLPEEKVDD
Source text: Potency of various alkylxanthines to antagonize A1
cardiac response: results of Schild analysis.
Cardiac response: antagonism of the negative dromotropic effect of the
selective A1 agonist CCPA.

A2 receptor [2] = target: T2, A2 receptor (Cavia porcellus, UniProt P46616); assay: Antagonism of A2 receptor-mediated coronary vasodilation (coronary conductance) caused by adenosine, isolated perfused heart; set-up: species or system guinea pig
T2 construct: isolated perfused guinea pig heart; from tissue; host or cells: isolated perfused guinea pig heart (coronary circulation)
Source text: The values are the mean±SEM from five guinea pig hearts.
of a maximum coronary vasodilation caused by adenosine. Values in

A1 receptor [3] = target: T1, A1 receptor; assay: S-H interval prolongation by adenosine in isolated heart, antagonism by ENX; set-up: species or system guinea pig
Source text: The height of each bar graph presents the mean±SEM of 4 experiments.

guinea pig hearts = assay: Left ventricular pressure and dP/dt (inotropic effect) in isolated hearts
Source text: Identical results were obtained in three other hearts.

phosphodiesterase = assay: Phosphodiesterase activity in homogenates of DDT1 MF-2 cells; format: biochemical; conditions: DDT1 MF-2 homogenate, 45 min, 30° C.
[4] = tested on: negative dromotropic effect of carbachol or MgCl2; assay: Specificity: negative dromotropic effect of carbachol or MgCl2 in isolated heart; set-up: species or system guinea pig; conditions: ENX 2 nM, 2 μM
Source text: The height of each bar graph presents the mean±SEM of 4 experiments. Only the S--H interval prolongation caused by adenosine was antagonized by ENX.

A1 receptor [5] = target: T1, A1 receptor; assay: A1 receptor binding with [3H]CPX in brain membranes (Table 4); set-up: species or system guinea pig
Source text: Radioligand binding studies.
(§2) Values are mean ± SEM of triplicate determinations in each
of several (n) preparations.

A1 receptor [6] = target: T3, A1 receptor (Mesocricetus auratus, UniProt A0A1U8BVR4); assay: A1 receptor binding with [3H]CPX in intact DDT1 MF2 cells
T3 sequence (A0A1U8BVR4 1-326): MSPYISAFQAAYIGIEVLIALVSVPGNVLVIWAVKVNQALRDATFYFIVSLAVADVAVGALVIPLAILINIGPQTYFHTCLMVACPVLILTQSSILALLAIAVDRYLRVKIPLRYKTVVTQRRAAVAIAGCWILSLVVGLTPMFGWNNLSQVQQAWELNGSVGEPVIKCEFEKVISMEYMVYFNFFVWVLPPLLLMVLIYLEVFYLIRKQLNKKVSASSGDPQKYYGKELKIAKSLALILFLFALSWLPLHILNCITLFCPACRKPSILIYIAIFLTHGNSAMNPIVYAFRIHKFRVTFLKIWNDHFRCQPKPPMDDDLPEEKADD
Source text: Radioligand binding studies.
as §2
of several (n) preparations.

A2 receptor [7] = target: T4, A2 receptor (Rattus norvegicus, UniProt P30543); assay: A2 receptor binding with [3H]NECA in PC12 cell membranes; conditions: mean ± SEM (n), read-out: Ki, PC-12
T4 construct: endogenous in cells; host or cells: PC12 cell membranes
Method: Radioligand binding studies.
A2 receptor binding was carried out with [^3 H]NECA in PC12 cell
membranes. Values are mean ± SEM of triplicate determinations in each
of several (n) preparations.

A2 adenosine receptor [8] = target: T5, A2 adenosine receptor (Cavia porcellus, UniProt P46616); assay: A2 receptor binding with [3H]CGS 21,860 in striatum membranes (Table 5); set-up: species or system guinea pig; conditions: mean ± S.E.M., read-out: K1, A2 (striatum)
T5 construct: from tissue; host or cells: guinea pig striatum membranes
Source text: (§3) Values are mean ± S.E.M. of triplicate determinations in
each of four preparations.

[9] = target: T6, rat brain adenosine A1 receptors (Rattus norvegicus, UniProt P25099); assay: Antagonism of radioligand binding to rat brain adenosine A1 receptors
T6 construct: rat brain A1 adenosine receptors; from tissue; host or cells: rat brain
T6 sequence (P25099 1-326): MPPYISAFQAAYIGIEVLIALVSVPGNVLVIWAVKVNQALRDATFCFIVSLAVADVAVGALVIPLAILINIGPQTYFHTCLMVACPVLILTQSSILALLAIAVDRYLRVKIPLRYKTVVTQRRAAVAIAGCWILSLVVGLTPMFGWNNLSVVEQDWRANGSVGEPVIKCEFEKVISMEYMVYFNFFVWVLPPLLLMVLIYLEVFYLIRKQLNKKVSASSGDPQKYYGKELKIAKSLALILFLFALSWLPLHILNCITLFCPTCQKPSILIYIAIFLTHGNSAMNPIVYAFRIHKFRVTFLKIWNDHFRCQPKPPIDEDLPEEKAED
Source text: (§4) rat brain adenosine A1 and A2 receptors ("IC50 "* values)
(§5) *"IC50 " refers to the concentration at which radioligand binding to
receptors was 50% inhibited.

[10] = target: T7, rat brain adenosine A2 receptors (Rattus norvegicus, UniProt P30543); assay: Antagonism of radioligand binding to rat brain adenosine A2 receptors
T7 construct: rat brain adenosine A1 and A2 receptors; from tissue; host or cells: rat brain
Source text: as §4, §5
receptors was 50% inhibited.

rats = assay: Cumulative urine output (diuretic activity) in rats; format: in vivo, rat
[11] = tested on: guinea pig tracheal muscle; assay: Relaxation of tracheal muscle
Source text: (§1) However, that can be useful in treating conditions that indicate short-acting treatments.

A1 adenosine receptor [12] = target: T8, A1 adenosine receptor (Cavia porcellus, UniProt P47745); assay: A1 receptor binding with [3H]CPX in forebrain membranes (Table 5); set-up: guinea pig forebrain (A1 receptor); from tissue; host or cells: guinea pig forebrain membranes; species or system guinea pig
Source text: as §3
each of four preparations.

A1 adenosine receptor [13] = target: A1 adenosine receptor (Homo sapiens, UniProt P30542); assay: A1 adenosine receptor agonist potency and selectivity (summary); conditions: racemic isomers
A1-adenosine receptor [14] = target: T9, A1-adenosine receptor (Mesocricetus auratus, UniProt A0A1U8BVR4); conditions: EC50, text to Table 8, DDT cells
T9 sequence (A0A1U8BVR4 1-326): T3 sequence (A0A1U8BVR4 1-326)

A1-adenosine receptor [15] = conditions: 1 μM (-)isoproterenol
A1-adenosine receptor [16] = conditions: 1 μM alone; 10 min
[17] = tested on: paroxysmal supraventricular tachycardia (PSVT); conditions: in vivo; cited from earlier work
A2 adenosine receptor [18] = assay: Hypotensive (A2) effect in whole animals; format: in vivo
A1 adenosine receptor [19] = target: T8, A1 adenosine receptor; assay: Slowing of A-V conduction (A1 effect) versus coronary vasodilation (A2 effect); set-up: slowing of A--V (A1 effect) conduction; from tissue
[20] = target: T10, rat brain A1 adenosine receptors (Rattus norvegicus, UniProt P25099); assay: Equilibrium dissociation constants for rat brain A1 adenosine receptors; format: binding; conditions: Table 6
T10 construct: rat brain A1 adenosine receptors; from tissue; host or cells: rat brain

A1 adenosine receptor [21] = target: T11, A1 adenosine receptor (Rattus norvegicus, UniProt P25099); assay: Biological activity and duration of action of ENX enantiomers; format: in vivo; conditions: for duration of action: S- vs R-enantiomer
T11 construct: from tissue; host or cells: whole animal
T11 sequence (P25099 1-326): T6 sequence (P25099 1-326)

[22] = Metabolism of ENX enantiomer; format: in vitro ADME
[23] = tested on: serum cholesterol and heparin precipitating β-lipoproteins; assay: Serum cholesterol and heparin precipitating β-lipoproteins in mice; format: in vivo; conditions: 100 mg/kg per os
hydrated rat = assay: Saluretic/kaluretic activity in hydrated rat; format: in vivo; conditions: 30 mg/kg per os
Source text: as §1

T7 sequence (P30543 whole entry): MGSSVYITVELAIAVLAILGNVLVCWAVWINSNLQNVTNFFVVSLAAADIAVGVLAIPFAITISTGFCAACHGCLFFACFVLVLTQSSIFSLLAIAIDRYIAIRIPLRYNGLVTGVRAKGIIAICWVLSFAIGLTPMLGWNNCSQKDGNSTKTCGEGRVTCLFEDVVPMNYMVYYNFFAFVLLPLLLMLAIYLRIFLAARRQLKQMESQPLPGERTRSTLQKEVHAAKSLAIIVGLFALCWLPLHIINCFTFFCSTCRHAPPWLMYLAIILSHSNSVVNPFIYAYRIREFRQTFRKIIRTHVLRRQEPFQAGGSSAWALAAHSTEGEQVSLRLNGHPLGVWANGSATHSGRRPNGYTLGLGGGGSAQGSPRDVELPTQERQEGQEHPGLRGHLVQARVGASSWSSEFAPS
T2 sequence (P46616 whole entry, the tested form may be a part): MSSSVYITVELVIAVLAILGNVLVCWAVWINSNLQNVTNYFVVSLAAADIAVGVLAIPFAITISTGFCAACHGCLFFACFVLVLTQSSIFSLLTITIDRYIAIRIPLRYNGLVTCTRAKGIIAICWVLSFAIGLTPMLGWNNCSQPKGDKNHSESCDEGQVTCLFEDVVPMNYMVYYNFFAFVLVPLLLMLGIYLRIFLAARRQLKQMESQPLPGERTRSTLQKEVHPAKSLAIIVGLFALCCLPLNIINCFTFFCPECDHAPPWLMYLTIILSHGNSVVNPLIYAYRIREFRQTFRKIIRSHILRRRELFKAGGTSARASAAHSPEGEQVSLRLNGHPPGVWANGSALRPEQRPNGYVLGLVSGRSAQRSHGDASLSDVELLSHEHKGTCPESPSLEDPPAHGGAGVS
A1 adenosine receptor (Homo sapiens, UniProt P30542), sequence (P30542 whole entry): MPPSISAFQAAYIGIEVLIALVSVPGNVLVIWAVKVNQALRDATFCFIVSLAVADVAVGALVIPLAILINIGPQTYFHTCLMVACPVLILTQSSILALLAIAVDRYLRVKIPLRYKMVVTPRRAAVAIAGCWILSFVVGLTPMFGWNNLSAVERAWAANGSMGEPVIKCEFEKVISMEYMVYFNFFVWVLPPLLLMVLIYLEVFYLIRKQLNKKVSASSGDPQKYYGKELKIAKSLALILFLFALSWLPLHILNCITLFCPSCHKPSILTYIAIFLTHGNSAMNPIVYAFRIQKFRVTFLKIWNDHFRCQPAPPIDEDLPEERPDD
T5 sequence (P46616 whole entry): as the sequence (P46616 whole entry, the tested form may be a part) above
T4 sequence (P30543 whole entry): as the sequence (P30543 whole entry) above

Compound: CCCn1c(=O)c2[nH]c(C3CC4CC3C3OC43)nc2n(CCC)c1=O (racemic) [ENX, 1,3-dipropyl-8-{3-oxatricyclo[3.1.2.0^2,4]oct-6(7)-yl}-xanthine]
Kb (A1 receptor [1]): 3.6 nM | Slope of Schild plot (A1 receptor [1]): -0.91 ± 0.06 | IC50 for A2 receptor-mediated coronary vasodilation (A2 receptor [2]): no effect | inhibition at 50 µM (A2 receptor [2]; read-out: inhibition of coronary vasodilation): 0% | antagonism of S-H prolongation caused by adenosine (A1 receptor [3]; ENX 2 nM, 2 μM, adenosine 4 μM): did antagonize | effect on S-H interval prolongation caused by adenosine (A1 receptor [3]; ENX 0.4 μM with adenosine 4 μM): completely inhibited | stimulus-to-His bundle interval, ENX alone (guinea pig hearts; ENX alone, up to 200 μM): no significant changes | LVP or dP/dt (guinea pig hearts; normoxic hearts, ENX 2-200 μM): no significant changes | phosphodiesterase inhibition (phosphodiesterase): does not inhibit phosphodiesterase | antagonism of negative dromotropic effect of carbachol or MgCl2 [4]: did not antagonize | Ki (A1 receptor [5]): 0.45 ± 0.22 nM | Ki (A1 receptor [6]): 0.22 ± 0.03 nM | Ki (A2 receptor [7]): 11700 nM | Ki (A2 adenosine receptor [8]): 360 ± 36 nM | IC50 [9]: 1.65 nM | IC50 [10]: 2100 nM | diuretic potency compared with furosemide (Lasix) (rats; rat, in vivo): at least as high as the potency of furosemide | tracheal smooth muscle relaxation / bronchodilation [11]: relax tracheal smooth muscle | Ki (A1 adenosine receptor [12]): 0.45 ± 0.13 nM

A1 agonist potency and selectivity (A1 adenosine receptor [13]): potent and highly selective agonists | EC50 (A1-adenosine receptor [14]): 1 to 2 nM
Compound: OC[C@H]1O[C@@H](n2cnc3c(N[C@H]4C[C@@H]5C[C@H]4[C@H]4O[C@@H]54)ncnc32)[C@H](O)[C@@H]1O (relative stereo) [N^6-(endo-5,6-epoxynorborn-2-yl) adenosine]

EC50 (A1-adenosine receptor [14]): 403 nM
Compound: [O-][n+]1cnc2c(ncn2[C@@H]2O[C@H](CO)[C@@H](O)[C@H]2O)c1N[C@@H]1C[C@@H]2C[C@H]1[C@H]1O[C@@H]21 (relative stereo) [N^6-(exo-5,6-epoxynorborn-2-yl) adenosine-1-oxide]

A1 agonist potency and selectivity (A1 adenosine receptor [13]): potent and highly selective agonists | EC50 (A1-adenosine receptor [14]): 1 to 2 nM
Compound: OC[C@H]1O[C@@H](n2cnc3c(N[C@@H]4C[C@@H]5C[C@H]4[C@H]4O[C@@H]54)ncnc32)[C@H](O)[C@@H]1O (relative stereo) [N^6-(exo-5,6-epoxynorborn-2-yl) adenosine]

Compound: CC(C)NC[C@H](O)c1ccc(O)c(O)c1 [(-)Isoproterenol, reference compound]
stimulated cAMP accumulated (A1-adenosine receptor [15]): 458 ± 41 pmol cAMP formed per 10 minutes | cAMP accumulation increase above basal level (A1-adenosine receptor [16]): 57 fold

Compound: Nc1ncnc2c1ncn2[C@@H]1O[C@H](CO)[C@@H](O)[C@H]1O [Adenosine]
effectiveness in terminating PSVT [17]: > 90%

Compound: OC[C@H]1O[C@@H](n2cnc3c(NC4CCCC4)ncnc32)[C@H](O)[C@@H]1O [CPA, N^6 -cyclopentyladenosine, reference compound]
EC50 (A1-adenosine receptor [14]): 1 to 2 nM

Ki (A1 receptor [5]; read-out: Ki, Brain): 41 ± 13 nM
Compound: Cn1c(=O)c2[nH]c(C3CCCC3)nc2n(C)c1=O [CPT, 8cyclopentyl-1,3-dimethylxanthine]

Compound: CCCn1c(=O)c2[nH]c(C3CCCC3)nc2n(CCC)c1=O [CPX, 8-cyclopentyl-1,3-dipropylxanthine]
Slope of Schild plot (A1 receptor [1]): -0.81 ± 0.03 | Ki (A1 receptor [6]): 0.13 ± 0.01 nM

Compound: CC(C)Cn1c(=O)n(C)c(=O)c2[nH]cnc21 [IBMX, isobutylmethylxanthine, reference compound]
phosphodiesterase inhibition (phosphodiesterase): inhibits phosphodiesterase

Kb (A1 receptor [1]; Schild analysis, numbers in parentheses are minimum and maximum KB values, read-out: KB, equilibrium dissociation constant): 1.6 nM | Slope of Schild plot (A1 receptor [1]): -0.89 ± 0.11 | IC50 (A2 receptor [2]): 7100 nM | Ki (A1 receptor [5]; read-out: Ki, Brain): 3.8 ± 0.21 nM | Ki (A1 receptor [6]; read-out: Ki, DDT1 MF2): 0.18 ± 0.05 nM | Ki (A2 adenosine receptor [8]): 22 ± 6.9 nM
Compound: CCCn1c(=O)c2[nH]c(C34CC5CC(CC3C5)C4)nc2n(CCC)c1=O [NAX, 1,3dipropyl-8-(3-noradamantyl)xanthine]

hypotensive (A2) effect (A2 adenosine receptor [18]): no discernable hypotensive (A2) effect
Compound: OC[C@H]1O[C@@H](n2cnc3c(N[C@H]4C[C@@H]5C[C@H]4[C@H]4O[C@@H]54)ncnc32)[C@H](O)[C@@H]1O [N^6-(2S-endo-5,6-epoxynorborn-2-yl) adenosine]
potency for slowing of A-V conduction (A1) over coronary vasodilation (A2) (A1 adenosine receptor [19]): more than 100 fold

Compound: CCCn1c(=O)c2[nH]c([C@@H]3C[C@H]4C[C@@H]3[C@@H]3O[C@H]43)nc2n(CCC)c1=O [R-ENX]
Ki [20]: 2.1 nM | IC50 [9]: 2.7 nM | IC50 [10]: 2600 nM | tracheal smooth muscle relaxation / bronchodilation [11]: bronchodilators | relaxation of spontaneous tone in trachea ([11]; guinea pig trachea): induce relaxation of spontaneous tone | duration of action (A1 adenosine receptor [21]): very short duration of action as compared to the S-enantiomer | metabolism [22]: rapidly degraded or metabolized

Compound: CCCn1c(=O)c2[nH]c([C@H]3C[C@@H]4C[C@H]3[C@H]3O[C@@H]43)nc2n(CCC)c1=O [S-ENX]
Ki [20]: 0.98 nM | IC50 [9]: 1.15 nM | IC50 [10]: 9000 nM | diuretic activity (cumulative urine output) (rats; 0.1 mg/kg i.v., 2 hours, rats): more potent than the R-enantiomer of ENX or a racemic mixture of R-and S-enantiomers of ENX | tracheal smooth muscle relaxation / bronchodilation [11]: bronchodilators | relaxation of constricted tracheal muscle ([11]; guinea pig, 100 mg/kg per os): relaxed constricted guinea pig tracheal muscle | serum cholesterol and heparin precipitating β-lipoproteins [23]: reduced serum cholesterol and heparin precipitating β-lipoproteins | kaluretic activity (hydrated rat): Moderate kaluretic activity | duration of action (A1 adenosine receptor [21]; listed as S-enantiomer): longer duration of action than the R-enantiomer | duration of action (A1 adenosine receptor [21]; listed as S-enantiomer of ENX): longer | share of the biological activity of racemic ENX (A1 adenosine receptor [21]; in vivo): 80-90%
